Assay results reported in ChEMBL document CHEMBL4476876, “Compounds for the modulation of myc activity” (2018).

Columns and labels:
NCI-H2171 = experiment: Antiproliferative activity against human NCI-H2171 cells after 72 hrs by ATPlite assay; type: functional, cell-based; conditions: NCI-H2171, 72 h
[1] = target: Myc proto-oncogene protein (Homo sapiens, UniProt P01106); experiment: Inhibition of human c-Myc assessed as reduction in c-Myc/Max/Ebox DNA complex formation using pre-formed complex of c-Myc and biotinylated DNA containing single Ebox-sequence followed by compound addition and further addition of his6-tagged c-Max and incubated for 2 hrs by AlphaScreen assay
Sequence of Myc proto-oncogene protein (P01106 whole entry): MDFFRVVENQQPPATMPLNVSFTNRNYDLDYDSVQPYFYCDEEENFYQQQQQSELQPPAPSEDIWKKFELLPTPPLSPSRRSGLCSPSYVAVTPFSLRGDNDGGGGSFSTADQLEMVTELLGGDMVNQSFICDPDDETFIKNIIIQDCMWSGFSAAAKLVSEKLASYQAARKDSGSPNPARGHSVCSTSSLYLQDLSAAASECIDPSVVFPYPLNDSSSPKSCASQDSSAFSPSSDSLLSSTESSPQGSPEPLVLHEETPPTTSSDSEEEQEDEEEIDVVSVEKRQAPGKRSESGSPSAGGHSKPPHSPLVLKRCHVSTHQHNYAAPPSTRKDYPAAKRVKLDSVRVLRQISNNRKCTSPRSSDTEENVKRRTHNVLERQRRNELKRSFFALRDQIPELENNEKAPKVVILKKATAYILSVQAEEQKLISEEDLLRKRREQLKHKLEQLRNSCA

| IC50 (NCI-H2171) [nM] | IC50 [1] [nM] | Structure (SMILES) |
| --- | --- | --- |
| < 500 | – | CCN1[C@H](C)Cc2c(sc(NC(C)=O)c2-c2nc3c(C(F)F)nccc3s2)[C@H]1C |
| – | < 500 | O=C(CC[N+]12CCN(CC1)CC2)Nc1sc2c(c1-c1nc3cnccc3s1)CCNC2 |
| < 500 | – | CC[C@H](C)NCCC(=O)Nc1sc2c(c1-c1nc3cnccc3s1)C[C@H](C)NC2 |
| < 500 | – | CC[C@H](C)NCCC(=O)Nc1sc2c(c1-c1nc3cnccc3s1)CN[C@H](C)C2 |
